Results reported in PubChem BioAssay AID608 (Sanford-Burnham Center for Chemical Genomics, 2007).
Calls of active or inactive are those of the source. No rule for the calls is given here.

What follows are compounds tested against Peptidyl-prolyl cis-trans isomerase FKBP1A (Homo sapiens) (UniProt P62942) (assay: FKBP12 binders, biophysical, NMR detection (AID 608)). Conditions: NMR binding, purified FKBP12.
Sequence of Peptidyl-prolyl cis-trans isomerase FKBP1A (Homo sapiens) (P62942 whole entry, looked up): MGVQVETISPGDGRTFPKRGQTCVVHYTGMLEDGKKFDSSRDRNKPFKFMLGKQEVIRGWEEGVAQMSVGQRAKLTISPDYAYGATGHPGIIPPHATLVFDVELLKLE
In the case of `Nc1ccc2c(c1)N1CCN=C1S2`, the Kd is reported as > 4 mM (inactive).
`Cc1sc(CCc2nc(-c3ccccc3)c(C)s2)nc1-c1ccccc1` was tested, and the Kd was “inactive”.
`CCN(CC)S(=O)(=O)c1ccc(F)cc1` was tested, and the Kd was > 4 mM (inactive).
`CCOc1ccccc1C(=O)NC1=NCCS1` was tested, and the Kd was > 4 mM (inactive).
`COc1cc2ccc(=O)oc2c(OC)c1OC` was tested, and the Kd was > 4 mM (inactive).
With `O=C(Nc1ccccc1CO)c1ccccc1F` the Kd was > 4 mM (inactive).
In the case of `O=c1cnnc(SCCc2ccccc2)[nH]1`, the Kd is reported as > 4 mM (inactive).
With `Cc1ccc(N2NC(=O)CC2=O)cc1C` the Kd was > 4 mM (inactive).
With `Cc1cc(NC(=O)c2ccccc2C(=O)O)no1` the Kd was > 4 mM (inactive).
With `Cc1oc(-c2ccccc2)nc1CCO` the Kd was > 4 mM (inactive).
With `Cc1nnc(N2CCN(c3ccccc3)CC2)[nH]c1=O` the Kd was > 4 mM (inactive).
In the case of `CN(C)C(=S)Nc1ccccc1N1CCOCC1`, the Kd is reported as > 4 mM (inactive).
In the case of `Oc1ccccc1N1CCCC1`, the Kd is reported as > 4 mM (inactive).
With `COC(=O)c1noc(C)c1C(C)=O` the Kd was > 4 mM (inactive).
In the case of `Nc1ccnc(C(=O)O)c1`, the Kd is reported as > 4 mM (inactive).
In the case of `Cc1onc(-c2ccccc2)c1CO`, the Kd is reported as > 4 mM (inactive).
In the case of `OCC1=Cc2ccccc2OC1`, the Kd is reported as > 4 mM (inactive).
With `COCc1c(CN)cnc(C)c1N` the Kd was > 4 mM (inactive).
With `CC(=O)Nc1ccc(C(=O)n2nc(C)cc2C)cc1` the Kd was > 4 mM (inactive).
`O=C(Nc1ccon1)c1csc2ccccc12` was tested, and the Kd was > 4 mM (inactive).
With `COC(=O)c1cc2cc(N)ccc2s1` the Kd was > 4 mM (inactive).
`COc1cccc(-c2nc(-c3ccccn3)no2)c1OC` was tested, and the Kd was > 4 mM (inactive).
`OC1CCN(C(=S)NC2CC2)CC1` was tested, and the Kd was > 4 mM (inactive).
`O=C(O)Cc1csc(-c2ccccc2)n1` was tested, and the Kd was > 4 mM (inactive).
For `CCC(C)C(=O)O[C@H]1[C@H](O)C2C(CN3CC(C)CCC3[C@@]2(C)O)C2C[C@]34O[C@]5(O)C(OC(=O)C(C)(O)CC)CC[C@@]3(C)C5C(OC(C)=O)[C@@H](OC(C)=O)C4[C@@]21O` (some centres not stated), the Kd was > 4 mM (inactive).
With `CC(=O)Nc1ccc2c(c1)n(C)c(=O)n2C` the Kd was > 4 mM (inactive).
With `CS(=O)(=O)N1CCN(C(=O)c2ccccc2F)CC1` the Kd was > 4 mM (inactive).
For `CC(=O)Nn1c(=O)[nH]c2ccccc2c1=O`, the Kd was > 4 mM (inactive).
`O=C(Cn1cnc2ccccc2c1=O)N1CCOCC1` was tested, and the Kd was > 4 mM (inactive).
For `O=C1CCCc2c1nc(-c1ccccc1)n2O`, the Kd was > 4 mM (inactive).
`CC(=O)OC1CCC23CC1(C)CCC2C(C)(C)CC3OC(C)=O` (configuration not stated) was tested, and the Kd was > 4 mM (inactive).
For `Cc1cccc(NC(=O)Nc2cc(C)on2)c1`, the Kd was > 4 mM (inactive).
With `O=C(O)CSc1cccc2cccnc12` the Kd was > 4 mM (inactive).
In the case of `COc1ccc(-c2c(O)c3c(OC)c4c(cc3oc2=O)OC(C)(C)CC4)cc1`, the Kd is reported as > 4 mM (inactive).
For `O=C(COc1ccc(S(=O)(=O)NC2CCCC2)cc1)N1CCOCC1`, the Kd was “inactive”.
For `COC(=O)[C@@H]1OC(=O)C2OC23[C@@]1(C)CCC1[C@@]2(C)CCC(=O)C(C)(C)C2C[C@@H](OC(C)=O)[C@]13C` (some centres not stated), the Kd was > 4 mM (inactive).
For `OCc1ccc2c(c1)OCO2`, the Kd was > 4 mM (inactive).
`CC(C)NC(=O)Cc1c(O)c2ccccc2[nH]c1=O` was tested, and the Kd was > 4 mM (inactive).
With `CN1CN/C(=N\[N+](=O)[O-])N(c2ccccc2)C1` the Kd was > 4 mM (inactive).
`O=c1c2c(nc3nc(Cc4ccccc4)[nH]n13)CCC2` was tested, and the Kd was > 4 mM (inactive).
With `COc1ccccc1NC(=O)CCC(=O)O` the Kd was > 4 mM (inactive).
For `Clc1ccc2c(N3CCNCC3)ccnc2c1`, the Kd was > 4 mM (inactive).
In the case of `COc1ccc(/C=C2/SC(N)=NC2=O)c(OC)c1`, the Kd is reported as > 4 mM (inactive).
`Cc1cc(C(=O)N2CCN(c3ccccn3)CC2)no1` was tested, and the Kd was > 4 mM (inactive).
With `NC(=O)CS(=O)(=O)c1ccc(Cl)cc1` the Kd was > 4 mM (inactive).
`CNC(Cc1c[nH]c2ccccc12)C(=O)O` (configuration not stated) was tested, and the Kd was > 4 mM (inactive).
With `Clc1ccccc1-c1nc(-c2cccnc2)no1` the Kd was > 4 mM (inactive).
For `Nc1nc(-c2ccc(O)cc2)cs1`, the Kd was > 4 mM (inactive).
`O=C(O)C1NCCc2ccccc21` (configuration not stated) was tested, and the Kd was > 4 mM (inactive).
With `O=C(O)c1cccc2nsnc12` the Kd was > 4 mM (inactive).
`O=C(COc1ccc(Cl)cc1Cl)N1CCOCC1` was tested, and the Kd was “inactive”.
For `Cc1cc(=O)n2ccc(CN3CCOCC3)c(O)c2n1`, the Kd was > 4 mM (inactive).
For `Cc1ccc(C(=O)N2CC(=O)NC(=O)C2)cc1`, the Kd was > 4 mM (inactive).
For `COC(=O)C[C@H]1C(C)(C)C(OC(C)=O)[C@]2(O)C=C3C(CC[C@]4(C)C3CC(=O)O[C@H]4c3ccoc3)C1(C)C2=O` (some centres not stated), the Kd was > 4 mM (inactive).
In the case of `O=CN1CCN(C(=O)c2ccco2)CC1`, the Kd is reported as > 4 mM (inactive).
In the case of `CC1C[C@H]2CC(=O)[C@H]3CCCN4CCC[C@H]2[C@]34C1` (some centres not stated), the Kd is reported as > 4 mM (inactive).
In the case of `O=S(=O)(c1cccc(Cl)c1)N1CCCC1`, the Kd is reported as > 4 mM (inactive).
`CCC[C@@H]1CCCCN1` was tested, and the Kd was > 4 mM (inactive).
With `Cc1cccc(NS(=O)(=O)c2cccs2)n1` the Kd was > 4 mM (inactive).
For `CC(=O)c1cnc(Nc2nc(C)c3ccccc3n2)nc1C`, the Kd was > 4 mM (inactive).
`C=C1CSc2nc(=O)c3c(C)c(C)sc3n21` was tested, and the Kd was > 4 mM (inactive).
With `O=C(O)C1CSC(c2ccccc2)N1` (configuration not stated) the Kd was > 4 mM (inactive).
For `NC(=O)c1ccc(NC(=O)c2ccco2)cc1`, the Kd was > 4 mM (inactive).
With `O=C1CSC(c2ccccc2)N1` (configuration not stated) the Kd was > 4 mM (inactive).
With `Cc1occc(=O)c1O` the Kd was > 4 mM (inactive).
In the case of `COc1cc2occc2c2oc(=O)ccc12`, the Kd is reported as > 4 mM (inactive).
For `COC(=O)c1sc(N)nc1C`, the Kd was > 4 mM (inactive).
For `Cc1[nH]ccc2c1[nH]c1cc(=O)ccc12`, the Kd was > 4 mM (inactive).
`CN(C)C(=O)N1CCN(C(=O)c2ccco2)CC1` was tested, and the Kd was > 4 mM (inactive).
With `Cc1cccc(C)c1NC(=O)CN1CCOCC1` the Kd was > 4 mM (inactive).
With `C=C[C@@](C)(O)CCC1C(=C)CCC2[C@@](C)(CO)CCC[C@]12C` (some centres not stated) the Kd was > 4 mM (inactive).
`CC1=C2[C@H]3OC(=O)[C@@H](C)[C@@H]3CC[C@@]2(C)C=CC1=O` was tested, and the Kd was > 4 mM (inactive).
In the case of `NC(=O)C12CC3CC(C1)C(=O)C(C3)C2`, the Kd is reported as > 4 mM (inactive).
For `O=C(NC1CCS(=O)(=O)C1)c1cccs1` (configuration not stated), the Kd was > 4 mM (inactive).
`NNC(=O)c1ccccc1-n1cccc1` was tested, and the Kd was > 4 mM (inactive).
In the case of `Cc1nnsc1-c1onc(C)c1C(=O)O`, the Kd is reported as > 4 mM (inactive).
With `NC(=O)Cc1nc2ccccc2[nH]1` the Kd was > 4 mM (inactive).
In the case of `Cn1c(=O)c2[nH]cnc2n(-c2ccccc2)c1=O`, the Kd is reported as > 4 mM (inactive).
With `CSc1nc(-c2ccccc2)ccc1C(N)=O` the Kd was > 4 mM (inactive).
In the case of `CSc1nc(-c2ccco2)nn1S(C)(=O)=O`, the Kd is reported as > 4 mM (inactive).
With `CC1=NN(c2ccc(C)cc2)C(=O)C1` the Kd was > 4 mM (inactive).
For `NCCc1cnc[nH]1`, the Kd was > 4 mM (inactive).
In the case of `NC(=O)C1CCN(C2CC(=O)NC2=O)CC1` (configuration not stated), the Kd is reported as > 4 mM (inactive).
`O=C(O)c1cccnc1-c1nc2ccccc2s1` was tested, and the Kd was > 4 mM (inactive).
`O=C1c2cccnc2C(=O)N1Cc1ccc2c(c1)OCO2` was tested, and the Kd was > 4 mM (inactive).
With `CCSc1nc2ccccc2[nH]1` the Kd was > 4 mM (inactive).
In the case of `COCC(=O)Nc1cc2c3c(c1)CCN3C(=O)CC2`, the Kd is reported as > 4 mM (inactive).
In the case of `NC(=O)Cc1nc(-c2ccc(F)cc2)cs1`, the Kd is reported as > 4 mM (inactive).
In the case of `NC(Cn1ccc(=O)c(O)c1)C(=O)O` (configuration not stated), the Kd is reported as > 4 mM (inactive).
`CC(CC(=O)O)n1cccn1` (configuration not stated) was tested, and the Kd was > 4 mM (inactive).
`NC(=O)c1ccc(Cl)c(N2C(=O)CCC2=O)c1` was tested, and the Kd was > 4 mM (inactive).
With `CC(CCC(=O)O)[C@H]1CCC2C3CC[C@@H]4CCCC[C@]4(C)C3CC[C@@]21C` (some centres not stated) the Kd was > 4 mM (inactive).
With `COc1cc(/C=C2/NC(=S)NC2=O)cc(Cl)c1O` the Kd was > 4 mM (inactive).
`CC(=O)NC1C(=O)Nc2c(C)cc(C)cc21` (configuration not stated) was tested, and the Kd was > 4 mM (inactive).
With `Cc1ccc(/C=C2/C(=O)N=C(N)N2C)s1` the Kd was > 4 mM (inactive).
With `Cc1cc(C)n(/N=C\c2cccs2)c(=O)c1C(N)=O` the Kd was > 4 mM (inactive).
With `O=C(c1ccncc1)c1ccc(Br)cc1` the Kd was > 4 mM (inactive).
For `CN(Cc1nc2ccccc2n1C)C(=O)c1cccs1`, the Kd was > 4 mM (inactive).
`CC(=O)Nc1sccc1C(=O)NC(N)=O` was tested, and the Kd was > 4 mM (inactive).
For `Cn1c(CN)nc2ccccc21`, the Kd was > 4 mM (inactive).
With `Nc1n[nH]c(=S)n1-c1ccccc1` the Kd was > 4 mM (inactive).
In the case of `COC(=O)c1c[nH]c2ccccc12`, the Kd is reported as > 4 mM (inactive).
`CS(=O)(=O)N1CCN(C(=O)c2ccccc2)CC1` was tested, and the Kd was > 4 mM (inactive).
`Nc1cccc(NC(=O)c2cccs2)c1` was tested, and the Kd was > 4 mM (inactive).
`COc1cc(O)c2c(=O)c(O)c(-c3ccc(O)c(O)c3)oc2c1` was tested, and the Kd was > 4 mM (inactive).
For `CC(=O)c1cccc(N=C2NC(=O)CS2)c1`, the Kd was > 4 mM (inactive).
With `O=C(O)CCC(=O)c1cccc2ccccc12` the Kd was > 4 mM (inactive).
With `O=C(Nc1ccc(Cl)cn1)c1cnn2cccnc12` the Kd was > 4 mM (inactive).
With `CC(C)(C)C(=O)N1CCCC1C(=O)O` (configuration not stated) the Kd was > 4 mM (inactive).
With `Cc1nc(-c2ccccc2)ncc1CO` the Kd was > 4 mM (inactive).
For `Nc1nc(SCC(=O)c2ccc([N+](=O)[O-])cc2)n[nH]1`, the Kd was > 4 mM (inactive).
`Cc1cc(NC(=O)c2cccc(N3C(=O)CCC3=O)c2)no1` was tested, and the Kd was > 4 mM (inactive).
With `CC(=O)Nc1cc(C(N)=O)cc(C(N)=O)c1` the Kd was > 4 mM (inactive).
`Cc1ccc(N2C(=O)C3C4C=CC(O4)C3C2=O)cc1` (configuration not stated) was tested, and the Kd was > 4 mM (inactive).
In the case of `CSc1ccccc1NC(=O)c1cccnc1`, the Kd is reported as > 4 mM (inactive).
For `CN(C)N1C(=O)c2ccccc2C1=O`, the Kd was > 4 mM (inactive).
In the case of `C=C1C2CC[C@@]3(C)[C@H](c4ccoc4)OC(=O)C[C@]13O[C@H]1CC(=O)C(C)(C)C(CC(=O)OC)C21C` (some centres not stated), the Kd is reported as > 4 mM (inactive).
`NC(=O)c1ccsc1NC(=O)c1cccnc1` was tested, and the Kd was > 4 mM (inactive).
With `CC(=O)N1CCN(S(=O)(=O)c2ccccc2)CC1` the Kd was > 4 mM (inactive).
In the case of `O=C(O)c1cncc(-c2ccccc2)c1`, the Kd is reported as > 4 mM (inactive).
In the case of `CC(=O)Nc1ccc(S(N)(=O)=O)cc1`, the Kd is reported as > 4 mM (inactive).
`Cc1cc(C)cc(NS(=O)(=O)N2CCOCC2)c1` was tested, and the Kd was “inactive”.
